“Also recorded” adds a separate entry of the source.
Legend:
[1] = Drug interaction summary: effect of co-administered drugs on maribavir pharmacokinetics (Tables 1-A, 1-B)
Description: Drug interaction studies were summarized based on Example 2 and other available data (e.g., in vitro and clinical data).

CYP3A4 mRNA = assay: CYP induction (mRNA, qPCR) in fresh human hepatocytes; assay type: in vitro ADME
Experimental: Fresh human hepatocytes were treated with culture medium with maribavir concentrations of 36 μM, 144 μM, and 480 μM.
Positive controls were 50 μM omeprazole (CYP1A2), 1 mM phenobarbital (CYP2B6), and 50 μM rifampicin (CYP3A).
Incubation was conducted at 37° C. for 72 hours, with daily replacement of medium with compound. Total RNA was isolated, and cDNA was synthesized from up to 1 μg of total isolated RNA. Analysis of CYP expression was performed using qPCR with CYP-specific probes.
Half maximal effective concentration (EC50) and maximum effect (Emax) values for CYP3A4 mRNA induction were further determined by a concentration-response curve in three donors with maribavir at a concentration between 0-100 μM.

[2] = set-up: species or system human; settings: in vivo
Description: It can be taken with or without food, and no dose adjustment is needed in patients with mild-to-moderate hepatic impairment or renal impairment. Maribavir has a low drug-interaction potential and there are minimal dose adjustments required (for example, only when taken concurrently with CYP3A4 inducers or certain immunosuppressants) and there are no effects on QT interval.

P-gp = molecular target: T1, P-gp (Homo sapiens, UniProt P08183); assay: Inhibition of P-gp efflux of digoxin in cultured Caco-2 cells; assay type: in vitro ADME
T1 construct: P-gp efflux of digoxin (as determined by the corrected efflux ratio) in cultured Caco-2 cells; endogenous in cells; host or cells: Caco-2 cells
Experimental: FIG. 4. Estimation of IC50 of maribavir on P-gp efflux of digoxin (as determined by the corrected efflux ratio) in cultured Caco-2 cells. IC50, half maximal inhibitory concentration; P-gp, P-glycoprotein.
Drug-drug interaction potential of maribavir with cytochrome P450 enzymes and P-glycoprotein (P-gp) was thoroughly characterized. The reversible inhibition, time-dependent inhibition, and induction of CYPs were evaluated in the presence of maribavir using human cells or human-derived cell lines. The inhibition of P-gp was also assessed.

CYP3A4 = molecular target: T2, CYP3A4 (Homo sapiens, UniProt P08684); assay: Reversible CYP inhibition in human liver microsomes (HLM); assay type: in vitro ADME; settings: up to 100 μM
T2 construct: from tissue; host or cells: human liver microsomes
Experimental: (§1) HLM were used to evaluate maribavir's half maximal inhibitory concentration (IC50) on inhibition of activities of nine CYP isoforms. Probe substrates were phenacetin (CYP1A2), coumarin (CYP2A6), bupropion (CYP2B6), paclitaxel (CYP2C8), tolbutamide (CYP2C9), (S)-mephenytoin (CYP2C19), dextromethorphan (CYP2D6), clorzoxazone (CYP2E1), and midazolam and testosterone (CYP3A4).
(§2) CYP activities with 0, 0.1, 0.3, 1, 3, 10, 30, and 100 μM of maribavir were evaluated.

CYP2E1 = molecular target: T3, CYP2E1 (Homo sapiens, UniProt P05181); assay: as above; assay type: in vitro ADME; settings: up to 100 μM
T3 construct: from tissue; host or cells: human liver microsomes
Experimental: as §1, §2

CYP2B6 = molecular target: T4, CYP2B6 (Homo sapiens, UniProt P20813); assay: as above; assay type: in vitro ADME; settings: up to 100 μM
T4 construct: from tissue; host or cells: human liver microsomes
T4 sequence (P20813 1-491): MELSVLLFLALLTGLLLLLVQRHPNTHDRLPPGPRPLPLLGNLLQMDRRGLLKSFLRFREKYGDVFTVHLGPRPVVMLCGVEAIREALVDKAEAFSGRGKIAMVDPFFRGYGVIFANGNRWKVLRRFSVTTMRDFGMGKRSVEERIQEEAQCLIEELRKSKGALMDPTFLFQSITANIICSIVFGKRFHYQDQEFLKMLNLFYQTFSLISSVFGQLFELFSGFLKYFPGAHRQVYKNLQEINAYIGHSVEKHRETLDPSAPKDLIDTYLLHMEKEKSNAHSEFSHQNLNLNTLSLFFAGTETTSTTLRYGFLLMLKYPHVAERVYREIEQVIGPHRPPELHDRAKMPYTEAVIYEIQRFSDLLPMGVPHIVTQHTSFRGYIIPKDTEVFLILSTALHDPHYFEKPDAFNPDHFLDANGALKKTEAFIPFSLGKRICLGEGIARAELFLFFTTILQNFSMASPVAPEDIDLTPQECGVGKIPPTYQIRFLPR
Experimental: as §1, §2

CYP2A6 = molecular target: T5, CYP2A6 (Homo sapiens, UniProt P11509); assay: as above; assay type: in vitro ADME; settings: up to 100 μM
T5 construct: from tissue; host or cells: human liver microsomes
T5 sequence (P11509 1-494): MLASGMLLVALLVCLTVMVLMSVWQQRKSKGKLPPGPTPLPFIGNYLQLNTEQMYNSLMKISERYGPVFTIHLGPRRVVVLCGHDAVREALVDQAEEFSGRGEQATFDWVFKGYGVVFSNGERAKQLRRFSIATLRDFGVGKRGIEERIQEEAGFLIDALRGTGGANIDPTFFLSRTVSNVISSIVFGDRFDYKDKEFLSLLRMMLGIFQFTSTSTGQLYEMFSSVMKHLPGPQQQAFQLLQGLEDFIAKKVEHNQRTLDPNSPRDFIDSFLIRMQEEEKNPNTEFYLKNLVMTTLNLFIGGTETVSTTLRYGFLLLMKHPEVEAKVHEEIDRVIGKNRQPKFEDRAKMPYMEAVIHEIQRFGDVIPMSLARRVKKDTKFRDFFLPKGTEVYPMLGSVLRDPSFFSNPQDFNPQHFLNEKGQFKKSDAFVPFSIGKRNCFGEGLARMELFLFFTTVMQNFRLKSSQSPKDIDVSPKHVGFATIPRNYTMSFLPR
Experimental: as §1, §2

[3] = Aluminum hydroxide and magnesium hydroxide antacid 20 mL single dose, maribavir 100 mg single dose
[4] = Ketoconazole 400 mg single dose, maribavir 400 mg single dose
[5] = Rifampin 600 mg once daily, maribavir 400 mg twice daily

T2 sequence (P08684 whole entry): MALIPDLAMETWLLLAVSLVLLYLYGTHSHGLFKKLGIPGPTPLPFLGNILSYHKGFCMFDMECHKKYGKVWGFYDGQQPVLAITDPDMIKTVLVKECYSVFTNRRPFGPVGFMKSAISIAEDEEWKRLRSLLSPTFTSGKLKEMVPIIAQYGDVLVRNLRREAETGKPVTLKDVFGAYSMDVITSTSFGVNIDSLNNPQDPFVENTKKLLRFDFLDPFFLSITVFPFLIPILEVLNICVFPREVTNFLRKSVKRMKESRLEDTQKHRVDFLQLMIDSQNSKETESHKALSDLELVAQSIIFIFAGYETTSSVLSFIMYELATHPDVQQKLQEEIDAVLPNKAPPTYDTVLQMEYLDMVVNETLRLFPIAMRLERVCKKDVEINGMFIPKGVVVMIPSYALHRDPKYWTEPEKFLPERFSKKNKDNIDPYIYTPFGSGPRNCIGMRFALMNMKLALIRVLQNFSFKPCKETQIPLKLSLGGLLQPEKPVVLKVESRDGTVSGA
T3 sequence (P05181 whole entry): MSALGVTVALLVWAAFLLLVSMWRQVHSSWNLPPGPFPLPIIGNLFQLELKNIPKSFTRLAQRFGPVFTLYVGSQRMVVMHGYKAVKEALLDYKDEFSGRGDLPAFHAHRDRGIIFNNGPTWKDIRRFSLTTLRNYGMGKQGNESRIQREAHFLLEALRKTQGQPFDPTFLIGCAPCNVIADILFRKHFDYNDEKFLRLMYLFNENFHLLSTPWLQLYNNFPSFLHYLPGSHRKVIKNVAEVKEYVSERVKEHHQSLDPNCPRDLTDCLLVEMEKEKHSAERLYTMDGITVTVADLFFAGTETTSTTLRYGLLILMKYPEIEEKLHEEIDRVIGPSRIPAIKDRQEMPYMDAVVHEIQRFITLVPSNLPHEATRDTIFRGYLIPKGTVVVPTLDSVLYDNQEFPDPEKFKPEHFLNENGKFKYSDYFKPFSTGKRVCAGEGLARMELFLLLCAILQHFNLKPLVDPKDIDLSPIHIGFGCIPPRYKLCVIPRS
T1 sequence (P08183 whole entry): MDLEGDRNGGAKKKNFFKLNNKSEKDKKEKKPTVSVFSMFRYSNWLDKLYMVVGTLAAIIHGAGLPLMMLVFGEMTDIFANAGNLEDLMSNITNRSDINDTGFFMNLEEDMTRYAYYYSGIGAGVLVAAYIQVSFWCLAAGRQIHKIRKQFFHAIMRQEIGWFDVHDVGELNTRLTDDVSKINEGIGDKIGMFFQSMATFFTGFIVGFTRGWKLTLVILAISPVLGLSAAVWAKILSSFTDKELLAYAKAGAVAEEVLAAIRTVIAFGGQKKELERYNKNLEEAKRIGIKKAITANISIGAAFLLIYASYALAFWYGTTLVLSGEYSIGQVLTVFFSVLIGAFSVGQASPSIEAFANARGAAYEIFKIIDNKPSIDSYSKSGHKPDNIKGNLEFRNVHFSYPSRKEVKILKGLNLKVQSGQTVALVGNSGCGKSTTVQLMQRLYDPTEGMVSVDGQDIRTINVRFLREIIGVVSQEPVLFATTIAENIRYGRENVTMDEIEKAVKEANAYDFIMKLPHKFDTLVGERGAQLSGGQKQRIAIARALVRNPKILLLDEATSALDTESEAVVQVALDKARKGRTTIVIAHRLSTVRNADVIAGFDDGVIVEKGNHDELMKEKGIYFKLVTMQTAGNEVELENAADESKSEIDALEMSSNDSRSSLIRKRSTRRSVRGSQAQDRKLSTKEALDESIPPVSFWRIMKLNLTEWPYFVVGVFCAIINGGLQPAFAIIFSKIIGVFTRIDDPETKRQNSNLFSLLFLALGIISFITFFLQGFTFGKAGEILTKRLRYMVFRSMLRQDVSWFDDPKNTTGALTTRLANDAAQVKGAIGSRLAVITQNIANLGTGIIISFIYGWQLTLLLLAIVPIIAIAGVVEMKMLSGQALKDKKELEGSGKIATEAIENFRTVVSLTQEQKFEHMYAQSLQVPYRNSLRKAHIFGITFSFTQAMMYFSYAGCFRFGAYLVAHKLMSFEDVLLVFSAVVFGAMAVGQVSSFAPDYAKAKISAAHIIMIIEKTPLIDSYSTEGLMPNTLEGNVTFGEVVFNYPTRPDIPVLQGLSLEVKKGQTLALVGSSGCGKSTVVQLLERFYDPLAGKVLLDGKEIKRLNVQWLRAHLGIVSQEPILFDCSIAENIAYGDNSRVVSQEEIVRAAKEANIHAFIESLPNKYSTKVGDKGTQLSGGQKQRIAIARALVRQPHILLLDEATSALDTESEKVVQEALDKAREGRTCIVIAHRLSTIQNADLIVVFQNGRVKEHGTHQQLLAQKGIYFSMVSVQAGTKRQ

CC(C)Nc1nc2cc(Cl)c(Cl)cc2n1[C@H]1O[C@@H](CO)[C@H](O)[C@@H]1O [maribavir, (2S,3S,4R,5S)-2-(5,6-dichloro-2-(isopropylamino)-1H-benzo[d]imidazol-1-yl)-5-(hydroxymethyl)tetrahydrofuran-3,4-diol]
Geometric Mean Ratio of Maribavir PK with/without Co-administered Drug (No Effect = 1.00), AUC [1, 3]: 0.89
Geometric Mean Ratio of Maribavir PK with/without Co-administered Drug (No Effect = 1.00), Cmax [1, 3]: 0.84
Geometric Mean Ratio of Maribavir PK with/without Co-administered Drug (No Effect = 1.00), AUC [1, 4]: 1.53
Geometric Mean Ratio of Maribavir PK with/without Co-administered Drug (No Effect = 1.00), Cmax [1, 4]: 1.10
Geometric Mean Ratio of Maribavir PK with/without Co-administered Drug (No Effect = 1.00), AUC [1, 5]: 0.40
Geometric Mean Ratio of Maribavir PK with/without Co-administered Drug (No Effect = 1.00), Cmax [1, 5]: 0.61
Geometric Mean Ratio of Maribavir PK with/without Co-administered Drug (No Effect = 1.00), Ctau ([1]; Rifampin 600 mg once daily, maribavir 400 mg twice daily, tau 12 hours): 0.18
fold increase in CYP3A4 mRNA induction (CYP3A4 mRNA; 36 μM maribavir, human hepatocytes): greater than 14 fold
EC50 at 72 h (CYP3A4 mRNA; human): > 5 µM
CYP3A4 mRNA induction, % of positive control (rifampicin) levels (CYP3A4 mRNA; human, hepatocytes, 72 h, 36 μM): greater than 30%
effects on QT interval [2]: no effects
IC50 (P-gp): 33.8 µM
reversible inhibition of CYP3A4 (CYP3A4): not a reversible inhibitor; also recorded: no significant inhibition
reversible inhibition of CYP2E1 (CYP2E1): not a reversible inhibitor; also recorded: no significant inhibition
reversible inhibition of CYP2B6 (CYP2B6): not a reversible inhibitor; also recorded: no significant inhibition
reversible inhibition of CYP2A6 (CYP2A6): not a reversible inhibitor; also recorded: no significant inhibition
